From US20060024234A1, “Protein markers for pharmaceuticals and related toxicity” (LARGE SCALE PROTEOMICS CORPORATION, A Division of Large …, priority 2000, published 2006) come the findings set out here.

The nature of data set [1]: Weight gain of treated rats. In kind it is in vivo, rat. Conditions: high doses.
The target in data set [2] is T1, rat liver proteins (Rattus norvegicus, UniProt P55260).
T1 construct: The 2DGE protein pattern of rat liver illustrates over 1000 Coomassie Blue stained protein spots; from tissue; host or cells: liver (left apical lobe) of drug-fed F344 rats
T1 sequence (P55260 1-319): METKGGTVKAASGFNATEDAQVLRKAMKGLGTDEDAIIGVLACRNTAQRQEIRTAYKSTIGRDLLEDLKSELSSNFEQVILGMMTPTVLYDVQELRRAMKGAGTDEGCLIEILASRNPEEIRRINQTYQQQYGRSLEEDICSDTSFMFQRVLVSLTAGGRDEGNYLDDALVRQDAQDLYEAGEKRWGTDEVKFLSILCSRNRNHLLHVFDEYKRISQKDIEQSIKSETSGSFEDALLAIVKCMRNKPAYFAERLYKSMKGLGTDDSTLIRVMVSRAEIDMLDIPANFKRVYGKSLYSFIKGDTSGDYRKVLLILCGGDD
Nature of the data set: Proteome analysis (2-D gel electrophoresis) of liver of rats fed antilipemic drugs at low and high dose for 7 days (Examples 1-3). Format: in vivo. Conditions: rat liver. How it is done: (§1) The animals were guillotined after CO2 asphyxiation on the day following the last treatment. Liver samples (150 mg of the left apical lobe) were removed and flash frozen in liquid nitrogen and kept at −80° C. until analysis.
(§2) The homogenates were centrifuged at 420,000×g at 22° C. for 30 min. […] The supernatant was removed, divided into four aliquots and stored at −80° C. until analysis.
(§3) An Angelique™ computer-controlled gradient-casting system (Large Scale Biology Corporation, Rockville, Md.) was used to prepare the second-dimension SDS slab gels. […] Second-dimensional slab gels were run overnight at 160 V in cooled DALT tanks (10° C.) with buffer circulation and were taken out when the tracking dye reached the bottom of the gel. Following SDS electrophoresis, the slab gels were fixed overnight in 1.5 liters/10 gels of 50% ethanol/3% phosphoric acid and then washed three times for 30 min in 1.5 liters/10 gels of cold DI water. They were transferred to 1.5 liters/10 gels of 34% methanol/17% ammonium sulfate/3% phosphoric acid for one hour, and after the addition of one gram powdered Coomassie Blue G-250 the gels were stained for three days to achieve equilibrium intensity.
(§4) Groupwise statistical comparisons were made to search for treatment-related protein abundance changes.
(§5) For these experiments, only pharmaceutical grade compounds were used with the trademark identifying the source. […] In each experiment, the low dose was equivalent to the daily human therapeutic dose.

The target in data set [3] is T2, rat liver proteins (Rattus norvegicus, UniProt P31044).
T2 construct: The 2DGE protein pattern of rat liver illustrates over 1000 Coomassie Blue stained protein spots; from tissue; host or cells: liver (left apical lobe) of drug-fed F344 rats
T2 sequence (P31044 1-187): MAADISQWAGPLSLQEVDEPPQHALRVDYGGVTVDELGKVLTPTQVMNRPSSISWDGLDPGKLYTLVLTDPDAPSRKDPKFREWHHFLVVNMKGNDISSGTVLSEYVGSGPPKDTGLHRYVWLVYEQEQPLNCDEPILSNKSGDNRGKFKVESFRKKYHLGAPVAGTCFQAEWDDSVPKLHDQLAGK
The data set is described as above. Format: in vivo. To be noted: rat liver. How it is done: as §1, §2, §3, §4, §5

In data set [4] the target is T3, rat liver proteins (Rattus norvegicus, UniProt P05545).
T3 construct: The 2DGE protein pattern of rat liver illustrates over 1000 Coomassie Blue stained protein spots; from tissue; host or cells: liver (left apical lobe) of drug-fed F344 rats
T3 sequence (P05545 21-416): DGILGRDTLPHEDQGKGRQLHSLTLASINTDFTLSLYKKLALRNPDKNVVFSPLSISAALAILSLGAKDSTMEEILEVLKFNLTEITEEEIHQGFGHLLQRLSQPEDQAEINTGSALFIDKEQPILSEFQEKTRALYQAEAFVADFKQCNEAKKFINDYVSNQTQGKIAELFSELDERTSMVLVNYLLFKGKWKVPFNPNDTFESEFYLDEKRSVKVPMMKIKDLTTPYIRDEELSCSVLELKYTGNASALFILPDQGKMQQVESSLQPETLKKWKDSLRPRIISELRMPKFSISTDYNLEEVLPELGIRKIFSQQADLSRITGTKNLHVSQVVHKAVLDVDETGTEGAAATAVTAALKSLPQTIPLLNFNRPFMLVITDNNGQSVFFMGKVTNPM
The description is as above. Format: in vivo. To be noted: rat liver, high doses. How it is done: as §1, §2, §3, §4, §5

The subject of data set [5] is rat liver proteins. The data set is described as above. Format: in vivo. Here is the method:
as §1, §2, §3, §4, §5

[6] abbreviates: rat liver, 1500 ppm in feed for 7 days.

In the case of `CC[C@H](C)C(=O)O[C@H]1C[C@@H](C)C=C2C=C[C@H](C)[C@H](CC[C@@H]3C[C@@H](O)CC(=O)O3)[C@H]21` [Mevacor ®, lovastatin], in data set [1], the weight gain entry is on record as “decrease”. In addition, at rat liver proteins [2], the “annexin IV abundance” value was “dose-dependent increase”. Besides, the “23 kD morphine binding protein abundance” value at rat liver proteins [3] was “increased”. Further, the “serine protease inhibitor 2 (SPI-2) abundance” value at rat liver proteins [4] is reported as “decrease”. Besides, in the data set with rat liver proteins [5] (16 ppm in feed for 7 days), the “protein abundance changes in liver at low dose” value is given as “not of statistical significance”. Further, the “protein kinase C inhibitor abundance” value in the data set with rat liver proteins [5] (rat liver) is reported as “increased”. For the same compound, in the data set on rat liver proteins [5] (setting [6]), the “number of hepatic proteins with altered abundance, p<0.001” value is recorded as 32; the “number of liver proteins with altered abundance, p<0.0001” value is 8; the “number of liver proteins with altered abundance, p<0.005” value was found to be 64; the “number of lost liver proteins” value is given as “one”. For the same compound, the “number of new liver proteins” value with rat liver proteins [5] (setting [6]) amounted to 1. The “number of liver proteins with altered abundance (total)” value with rat liver proteins [5] (rat liver, two-tailed Student's t-test, 1500 ppm in feed for 7 days) was determined as 66.
